Laboratory results from patent US11180462B2, “Microbiocidal oxadiazole derivatives” (SYNGENTA PARTICIPATIONS AG, priority 2015, dated 2021).
Like-named read-outs stand apart in the source and are kept apart here.

How the values were obtained:
[1] = test system: Glomerella lagenarium (Colletotrichum lagenarium); assay: Fungicidal activity against Glomerella lagenarium (Colletotrichum lagenarium) liquid culture / cucumber / preventative (anthracnose); assay type: cell-based; conditions: Colletotrichum orbiculare, read-out: disease control
How it was run: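 Photometric read-out of fungal growth after 2–7 days, expressed as percent antifungal activity versus untreated check. Cryo-stored conidia in PDB; compound at 20 ppm; dark, 24 °C, 96% RH.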

[2] = test system: Puccinia recondita f. Sp. Tritici; assay: Fungicidal activity against Puccinia recondita f. sp. tritici / wheat / leaf disc preventative (brown rust); assay type: in vivo; conditions: foliar, read-out: disease control
How it was run: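 Compound application precedes infection: segments of wheat cv. Kanzler, sprayed at 200 ppm, are inoculated with a spore suspension after 1 day. Incubation is at 19° C. with 75% relative humidity and 12 h light/12 h darkness, and control versus untreated leaves is rated 7 to 9 days post-application.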

[3] = test system: Puccinia recondita f. Sp. Tritici; assay: Fungicidal activity against Puccinia recondita f. sp. tritici / wheat / leaf disc curative (brown rust); assay type: in vivo; conditions: foliar, 24 h, read-out: disease control
Procedure: Leaf disks or leaf segments of various plant species are cut from plants grown in a greenhouse. The cut leaf disks or segments are placed in multiwell plates (24-well format) onto water agar. The leaf disks are sprayed with a test solution before (preventative) or after (curative) inoculation. Compounds to be tested are prepared as DMSO solutions (max. 10 mg/ml) which are diluted to the appropriate concentration with 0.025% Tween20 just before spraying. The inoculated leaf disks or segments are incubated under defined conditions (temperature, relative humidity, light, etc.) according to the respective test system. A single evaluation of disease level is carried out 3 to 14 days after inoculation, depending on the pathosystem. Percent disease control relative to the untreated check leaf disks or segments is then calculated.
Fungicidal Activity Against Puccinia recondita f. Sp. Tritici/Wheat/Leaf Disc Curative (Brown Rust)
Wheat leaf segments cv. Kanzler are placed on agar in multiwell plates (24-well format). The leaf segments are then inoculated with a spore suspension of the fungus. Plates were stored in darkness at 19° C. and 75% relative humidity. The formulated test compound diluted in water was applied 1 day after inoculation. The leaf segments were incubated at 19° C. and 75% relative humidity under a light regime of 12 hours light/12 hours darkness in a climate cabinet and the activity of a compound was assessed as percent disease control compared to untreated when an appropriate level of disease damage appears in untreated check leaf segments (6 to 8 days after application).
The following compounds at 200 ppm in the applied formulation give at least 80% disease control in this test when compared to untreated control leaf disks under the same conditions, which show extensive disease development.

[4] = 20 ppm in the applied formulation, liquid culture (PDB), growth inhibition measured photometrically after 3 to 4 days, compared to untreated control
[5] = 200 ppm in the applied formulation, wheat leaf segments, preventative, compared to untreated control leaf disks
[6] = 200 ppm in the applied formulation, wheat leaf segments, curative (applied 1 day after inoculation), compared to untreated control leaf disks

COCC(=O)N(Cc1ccc(-c2noc(C(F)(F)F)n2)cc1)CC1CCCO1 (stereo not drawn) [Compound 1.415, 2-methoxy-N-(tetrahydrofuran-2-ylmethyl)-N-[[4-[5-(trifluoromethyl)-1,2,4-oxadiazol-3-yl]phenyl]methyl]-acetamide]
≥ 80%: inhibition of growth at 20 ppm [1, 4] | pest or weed control at 200 ppm [2, 5] | pest or weed control at 200 ppm [3, 6]

O=C(C1CC1)N(Cc1ccc(-c2noc(C(F)(F)F)n2)cc1)CC1CCCO1 (stereo not drawn) [Compound 1.450, N-(tetrahydrofuran-2-ylmethyl)-N-[[4-[5-(trifluoromethyl)-1,2,4-oxadiazol-3-yl]phenyl]methyl]-cyclopropane-carboxamide]
≥ 80%: inhibition of growth at 20 ppm [1, 4] | pest or weed control at 200 ppm [2, 5] | pest or weed control at 200 ppm [3, 6]

COCCN(C)C(=O)N(Cc1ccc(-c2noc(C(F)(F)F)n2)cc1)OC [Compound 3.63, 1-methoxy-3-(2-methoxyethyl)-3-methyl-1-[[4-[5-(trifluoromethyl)-1,2,4-oxadiazol-3-yl]phenyl]methyl]urea]
≥ 80%: inhibition of growth at 20 ppm [1, 4] | pest or weed control at 200 ppm [2, 5] | pest or weed control at 200 ppm [3, 6]

CON(Cc1ccc(-c2noc(C(F)(F)F)n2)cc1)C(=O)OC(C)C [Compound 2.14, isopropyl N-methoxy-N-[[4-[5-(trifluoromethyl)-1,2,4-oxadiazol-3-yl]phenyl]methyl]-carbamate]
≥ 80%: inhibition of growth at 20 ppm [1, 4] | pest or weed control at 200 ppm [2, 5] | pest or weed control at 200 ppm [3, 6]

O=C(C1OCCO1)N(Cc1ccc(-c2noc(C(F)(F)F)n2)cc1)Cc1ccco1 [Compound 1.473, N-(2-furylmethyl)-N-[[4-[5-(trifluoromethyl)-1,2,4-oxadiazol-3-yl]phenyl]methyl]-1,3-dioxolane-2-carboxamide]
≥ 80%: inhibition of growth at 20 ppm [1, 4] | pest or weed control at 200 ppm [2, 5] | pest or weed control at 200 ppm [3, 6]

CC(=O)N(Cc1ccc(-c2noc(C(F)(F)F)n2)cc1)CC1CCCO1 (stereo not drawn) [Compound 1.451, N-(tetrahydrofuran-2-ylmethyl)-N-[[4-[5-(trifluoromethyl)-1,2,4-oxadiazol-3-yl]phenyl]methyl]-acetate]
≥ 80%: inhibition of growth at 20 ppm [1, 4] | pest or weed control at 200 ppm [2, 5] | pest or weed control at 200 ppm [3, 6]

O=C(CC(F)(F)F)N(Cc1ccc(-c2noc(C(F)(F)F)n2)cc1)CC1CCCO1 (stereo not drawn) [Compound 1.448, 3,3,3-trifluoro-N-(tetrahydrofuran-2-ylmethyl)-N-[[4-[5-(trifluoromethyl)-1,2,4-oxadiazol-3-yl]phenyl]methyl]-propanamide]
≥ 80%: inhibition of growth at 20 ppm [1, 4] | pest or weed control at 200 ppm [2, 5] | pest or weed control at 200 ppm [3, 6]

CCCC(C)(C)C(=O)N(Cc1ccc(-c2noc(C(F)(F)F)n2)cc1)OC [Compound 1.10, N-methoxy-2,2-dimethyl-N-[[4-[5-(trifluoromethyl)-1,2,4-oxadiazol-3-yl]phenyl]methyl]-pentanamide]
≥ 80%: inhibition of growth at 20 ppm [1, 4] | pest or weed control at 200 ppm [2, 5] | pest or weed control at 200 ppm [3, 6]

CCC(C)N(Cc1ccc(-c2noc(C(F)(F)F)n2)cc1)C(=O)C1(C)CC1 (stereo not drawn) [Compound 1.388, 1-methyl-N-sec-butyl-N-[[4-[5-(trifluoromethyl)-1,2,4-oxadiazol-3-yl]phenyl]methyl]-cyclopropane-carboxamide]
≥ 80%: inhibition of growth at 20 ppm [1, 4] | pest or weed control at 200 ppm [2, 5] | pest or weed control at 200 ppm [3, 6]

CCOC(=O)CN(C)C(=O)N(CC)Cc1ccc(-c2noc(C(F)(F)F)n2)cc1 [Compound 3.92, ethyl 2-[[ethyl-[[4-[5-(trifluoromethyl)-1,2,4-oxadiazol-3-yl]phenyl]methyl]-carbamoyl]-methyl-amino]acetate]
≥ 80%: inhibition of growth at 20 ppm [1, 4] | pest or weed control at 200 ppm [2, 5] | pest or weed control at 200 ppm [3, 6]

CCOC(=O)CN(C)C(=O)N(C)Cc1ccc(-c2noc(C(F)(F)F)n2)cc1 [Compound 3.73, ethyl 2-[methyl-[methyl-[[4-[5-(trifluoromethyl)-1,2,4-oxadiazol-3-yl]phenyl]methyl]-carbamoyl- ]amino]acetate]
≥ 80%: inhibition of growth at 20 ppm [1, 4] | pest or weed control at 200 ppm [2, 5] | pest or weed control at 200 ppm [3, 6]

CON(Cc1ccc(-c2noc(C(F)(F)F)n2)cc1)C(=O)OCCCCl [Compound 2.16, 3-chloropropyl N-methoxy-N-[[4-[5-(trifluoromethyl)-1,2,4-oxadiazol-3-yl]phenyl]methyl]-carbamate]
≥ 80%: inhibition of growth at 20 ppm [1, 4] | pest or weed control at 200 ppm [2, 5] | pest or weed control at 200 ppm [3, 6]

CN(Cc1ccc(-c2noc(C(F)(F)F)n2)cc1)C(=O)CCl [Compound 1.522, 2-chloro-N-methyl-N-[[4-[5-(trifluoromethyl)-1,2,4-oxadiazol-3-yl]phenyl]methyl]-acetamide]
≥ 80%: inhibition of growth at 20 ppm [1, 4] | pest or weed control at 200 ppm [2, 5] | pest or weed control at 200 ppm [3, 6]

O=C(C1CC1)N(CCO)Cc1ccc(-c2noc(C(F)(F)F)n2)cc1 [Compound 1.609, N-(2-hydroxyethyl)-N-[[4-[5-(trifluoromethyl)-1,2,4-oxadiazol-3-yl]phenyl]methyl]-cyclopropane-carboxamide]
≥ 80%: inhibition of growth at 20 ppm [1, 4] | pest or weed control at 200 ppm [2, 5] | pest or weed control at 200 ppm [3, 6]

COCCN(Cc1ccc(-c2noc(C(F)(F)F)n2)cc1)C(=O)CC(C)C [Compound 1.336, N-(2-methoxyethyl)-3-methyl-N-[[4-[5-(trifluoromethyl)-1,2,4-oxadiazol-3-yl]phenyl]methyl]-butanamide]
≥ 80%: inhibition of growth at 20 ppm [1, 4] | pest or weed control at 200 ppm [2, 5] | pest or weed control at 200 ppm [3, 6]

C#CC(=O)N(CCOC)Cc1ccc(-c2noc(C(F)(F)F)n2)cc1 [Compound 1.347, N-(2-methoxyethyl)-N-[[4-[5-(trifluoromethyl)-1,2,4-oxadiazol-3-yl]phenyl]methyl]prop-2-ynamide]
≥ 80%: inhibition of growth at 20 ppm [1, 4] | pest or weed control at 200 ppm [2, 5] | pest or weed control at 200 ppm [3, 6]

CCN(CC)C(=O)N(Cc1ccc(-c2noc(C(F)(F)F)n2)cc1)OC [Compound 3.64, 1,1-diethyl-3-methoxy-3-[[4-[5-(trifluoromethyl)-1,2,4-oxadiazol-3-yl]phenyl]methyl]urea]
≥ 80%: inhibition of growth at 20 ppm [1, 4] | pest or weed control at 200 ppm [2, 5] | pest or weed control at 200 ppm [3, 6]

CCN(Cc1ccc(-c2noc(C(F)(F)F)n2)cc1)C(=O)N(CC)C1CC1 [Compound 3.89, 1-cyclopropyl-1,3-diethyl-3-[[4-[5-(trifluoromethyl)-1,2,4-oxadiazol-3-yl]phenyl]methyl]urea]
≥ 80%: inhibition of growth at 20 ppm [1, 4] | pest or weed control at 200 ppm [2, 5] | pest or weed control at 200 ppm [3, 6]

C#CCN(Cc1ccc(-c2noc(C(F)(F)F)n2)cc1)C(=O)CCCCC [Compound 1.162, N-prop-2-ynyl-N-[[4-[5-(trifluoromethyl)-1,2,4-oxadiazol-3-yl]phenyl]methyl]-hexanamide]
≥ 80%: inhibition of growth at 20 ppm [1, 4] | pest or weed control at 200 ppm [2, 5] | pest or weed control at 200 ppm [3, 6]

CON(C(=O)C1OCCO1)C(C)c1ccc(-c2noc(C(F)(F)F)n2)cc1 (stereo not drawn) [Compound 1.276, N-methoxy-N-[1-[4-[5-(trifluoromethyl)-1,2,4-oxadiazol-3-yl]phenyl]ethyl]-1,3-dioxolane-2-carboxamide]
≥ 80%: inhibition of growth at 20 ppm [1, 4] | pest or weed control at 200 ppm [2, 5] | pest or weed control at 200 ppm [3, 6]

CON(Cc1ccc(-c2noc(C(F)(F)F)n2)cc1)C(=O)Oc1ccccc1 [Compound 2.6, phenyl N-methoxy-N-[[4-[5-(trifluoromethyl)-1,2,4-oxadiazol-3-yl]phenyl]methyl]-carbamate]
≥ 80%: inhibition of growth at 20 ppm [1] | pest or weed control at 200 ppm [2] | pest or weed control at 200 ppm [3]

COCCCC(=O)N(OC)C(C)c1ccc(-c2noc(C(F)(F)F)n2)cc1 (stereo not drawn) [Compound 1.280, N,4-dimethoxy-N-[1-[4-[5-(trifluoro-methyl)-1,2,4-oxadiazol-3-yl]phenyl]ethyl]-butanamide]
≥ 80%: inhibition of growth at 20 ppm [1, 4] | pest or weed control at 200 ppm [2, 5] | pest or weed control at 200 ppm [3, 6]

CCC(C)N(Cc1ccc(-c2noc(C(F)(F)F)n2)cc1)C(=O)C1CSC1 (stereo not drawn) [Compound 1.378, N-sec-butyl-N-[[4-[5-(trifluoromethyl)-1,2,4-oxadiazol-3-yl]phenyl]methyl]-thietane-3-carboxamide]
≥ 80%: inhibition of growth at 20 ppm [1, 4] | pest or weed control at 200 ppm [2, 5] | pest or weed control at 200 ppm [3, 6]
